# Assay results taken from US7396837B2, “Antitumoral analogs of lamellarins” (Pharma Mar, S.A.U., priority 2002, dated 2008).
# Assays:
# Assay type in all cases: cell-based
# LoVo = assay: SRB colorimetric cell growth inhibition assay, LoVo; conditions: Homo sapiens, LoVo; for GI50: GI=growth inhibition, read-out: GI50 LOVO; for CC50: LC=cell killing (cytotoxic effect), read-out: LC50 LOVO; for IC (TGI): TGI=total growth inhibition (cytostatic effect), read-out: TGI LOVO
# Outline: (§1)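 Cancer cells grown in vitro were continuously treated with compound. Cell mass was then determined by SRB staining and expressed as growth inhibition.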
# A-549 = assay: SRB colorimetric cell growth inhibition assay, A-549; conditions: Homo sapiens, A549, A-549; for GI50: GI=growth inhibition, read-out: GI50 A-549; for CC50: LC=cell killing (cytotoxic effect), read-out: LC50 A-549; for IC (TGI): TGI=total growth inhibition (cytostatic effect), read-out: TGI A-549
# Outline: as §1
# SK-MEL-28 = assay: SRB colorimetric cell growth inhibition assay, SK-MEL-28; conditions: Homo sapiens, SK-MEL-28, MEL-28; for GI50: GI=growth inhibition, read-out: GI50 MEL-28; for CC50: LC=cell killing (cytotoxic effect), read-out: LC50 MEL-28; for IC (TGI): TGI=total growth inhibition (cytostatic effect), read-out: TGI MEL-28
# Outline: as §1
# PANC-1 = assay: SRB colorimetric cell growth inhibition assay, PANC-1; conditions: Homo sapiens, PANC-1, PANC-1; for GI50: GI=growth inhibition, read-out: GI50 PANC-1; for CC50: LC=cell killing (cytotoxic effect), read-out: LC50 PANC-1; for IC (TGI): TGI=total growth inhibition (cytostatic effect), read-out: TGI PANC-1
# Outline: as §1
# LNCaP = assay: SRB colorimetric cell growth inhibition assay, LNCaP; conditions: Homo sapiens, LNCaP, LN-caP; for GI50: GI=growth inhibition, read-out: GI50 LN-caP; for CC50: LC=cell killing (cytotoxic effect), read-out: LC50 LN-caP; for IC (TGI): TGI=total growth inhibition (cytostatic effect), read-out: TGI LN-caP
# Outline: as §1
# K-562 = assay: SRB colorimetric cell growth inhibition assay, K-562; conditions: Homo sapiens, K562, K-562; for GI50: GI=growth inhibition, read-out: GI50 K-562; for CC50: LC=cell killing (cytotoxic effect), read-out: LC50 K-562; for IC (TGI): TGI=total growth inhibition (cytostatic effect), read-out: TGI K-562
# Outline: as §1
# SK-BR-3 = assay: SRB colorimetric cell growth inhibition assay, SK-BR-3; conditions: Homo sapiens, SK-BR-3, SK-BR-3; for GI50: GI=growth inhibition, read-out: GI50 SK-BR-3; for CC50: LC=cell killing (cytotoxic effect), read-out: LC50 SK-BR-3; for IC (TGI): TGI=total growth inhibition (cytostatic effect), read-out: TGI SK-BR-3
# Outline: as §1
# LoVo-Dox = assay: SRB colorimetric cell growth inhibition assay, LoVo-Dox (MDR); conditions: Homo sapiens, LOVO-DOX; for GI50: GI=growth inhibition, read-out: GI50 LOVO-DOX; for CC50: LC=cell killing (cytotoxic effect), read-out: LC50 LOVO-DOX; for IC (TGI): TGI=total growth inhibition (cytostatic effect), read-out: TGI LOVO-DOX
# Outline: as §1
# IGROV-ET = assay: SRB colorimetric cell growth inhibition assay, IGROV-ET (ET-743 resistant); conditions: Homo sapiens, IGROV-ET; for GI50: GI=growth inhibition, read-out: GI50 IGROV-ET; for CC50: LC=cell killing (cytotoxic effect), read-out: LC50 IGROV-ET; for IC (TGI): TGI=total growth inhibition (cytostatic effect), read-out: TGI IGROV-ET
# Outline: as §1
# DU-145 = assay: SRB colorimetric cell growth inhibition assay, DU-145; conditions: Homo sapiens, DU-145, DU-145; for GI50: GI=growth inhibition, read-out: GI50 DU-145; for CC50: LC=cell killing (cytotoxic effect), read-out: LC50 DU-145; for IC (TGI): TGI=total growth inhibition (cytostatic effect), read-out: TGI DU-145
# Outline: as §1
# SKOV-3 = assay: SRB colorimetric cell growth inhibition assay, SKOV-3; conditions: Homo sapiens; for GI50: SK-OV-3, SKOV-3, GI=growth inhibition, read-out: GI50 SKOV-3; for CC50 / IC (TGI): SK-OV-3, SKOV-3; for CC50: LC=cell killing (cytotoxic effect), read-out: LC50 SKOV-3; for IC (TGI): TGI=total growth inhibition (cytostatic effect), read-out: TGI SKOV-3
# Outline: (§2)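 SRB colorimetric readout of cell growth/viability in 96-well format. Means ± SD from triplicate wells; GI (growth inhibition), TGI (total growth inhibition, cytostatic) and LC (cell killing, cytotoxic) parameters derived.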
# IGROV = assay: SRB colorimetric cell growth inhibition assay, IGROV; conditions: Homo sapiens, IGROV; for GI50: GI=growth inhibition, read-out: GI50 IGROV; for CC50: LC=cell killing (cytotoxic effect), read-out: LC50 IGROV; for IC (TGI): TGI=total growth inhibition (cytostatic effect), read-out: TGI IGROV
# Outline: as §1
# H-MEC-1 = assay: SRB colorimetric cell growth inhibition assay, H-MEC-1; conditions: Homo sapiens, HMEC-1, H-MEC-1; for GI50: GI=growth inhibition; for IC (TGI): TGI=total growth inhibition (cytostatic effect), read-out: TGI H-MEC-1
# Outline: as §2
# [1] = as above; conditions: human, H-MEC-1 cells, H-MEC-1; LC=cell killing (cytotoxic effect); read-out: LC50 H-MEC-1
# Outline: as §2
# HT-29 = assay: SRB colorimetric cell growth inhibition assay, HT-29; conditions: Homo sapiens, HT-29, HT-29; for GI50: GI=growth inhibition, read-out: GI50 HT-29; for CC50: LC=cell killing (cytotoxic effect), read-out: LC50 HT-29; for IC (TGI): TGI=total growth inhibition (cytostatic effect), read-out: TGI HT-29
# Outline: as §1
smiles,measurement,setting,value
COc1cc2ccn3c(c(-c4ccc(OC(=O)[C@H](C)NC(=O)OC(C)(C)C)c(OC)c4)c4c5cc(OC)c(OC(=O)[C@H](C)NC(=O)OC(C)(C)C)cc5oc(=O)c43)c2cc1OC [Compound 77],GI50,LoVo,11.7 µM
same,CC50,LoVo,11.7 µM
same,IC (TGI),LoVo,11.7 µM
same,GI50,A-549,6.69 µM
same,CC50,A-549,11.7 µM
same,IC (TGI),A-549,11.7 µM
same,GI50,SK-MEL-28,3.29 µM
same,CC50,SK-MEL-28,11.7 µM
same,IC (TGI),SK-MEL-28,10.1 µM
same,GI50,PANC-1,4.46 µM
same,CC50,PANC-1,11.7 µM
same,IC (TGI),PANC-1,11.7 µM
same,GI50,LNCaP,7.51 µM
same,CC50,LNCaP,11.7 µM
same,IC (TGI),LNCaP,11.7 µM
same,GI50,K-562,2.13 µM
same,CC50,K-562,11.7 µM
same,IC (TGI),K-562,6.15 µM
same,GI50,SK-BR-3,3.53 µM
same,CC50,SK-BR-3,11.7 µM
same,IC (TGI),SK-BR-3,11.7 µM
same,GI50,LoVo-Dox,10.2 µM
same,CC50,LoVo-Dox,11.7 µM
same,IC (TGI),LoVo-Dox,11.7 µM
same,GI50,IGROV-ET,0.258 µM
same,CC50,IGROV-ET,11.7 µM
same,IC (TGI),IGROV-ET,1.17 µM
same,GI50,DU-145,0.8 µM
same,CC50,DU-145,11.7 µM
same,IC (TGI),DU-145,3.96 µM
same,GI50,SKOV-3,7.52 µM
same,CC50,SKOV-3,11.7 µM
same,IC (TGI),SKOV-3,11.7 µM
same,GI50,IGROV,5.92 µM
same,CC50,IGROV,11.7 µM
same,IC (TGI),IGROV,8.84 µM
same,GI50,H-MEC-1,2.71 µM
same,IC (TGI),H-MEC-1,11.7 µM
same,CC50,[1],11.7 µM
same,GI50,HT-29,11.7 µM
same,CC50,HT-29,11.7 µM
same,IC (TGI),HT-29,11.7 µM
COc1cc2c(cc1OC)-c1c(-c3ccc(OC(=O)[C@H](Cc4ccccc4)NC(=O)OC(C)(C)C)c(OC)c3)c3c4cc(OC)c(OC(=O)[C@H](Cc5ccccc5)NC(=O)OC(C)(C)C)cc4oc(=O)c3n1CC2 [Compound 84],GI50,LoVo,4.48 µM
same,CC50,LoVo,9.9 µM
same,IC (TGI),LoVo,9.9 µM
same,GI50,A-549,2.66 µM
same,CC50,A-549,9.03 µM
same,IC (TGI),A-549,4.91 µM
same,GI50,SK-MEL-28,2.07 µM
same,CC50,SK-MEL-28,7.21 µM
same,IC (TGI),SK-MEL-28,3.86 µM
same,GI50,PANC-1,0.501 µM
same,CC50,PANC-1,9.9 µM
same,IC (TGI),PANC-1,5.47 µM
same,GI50,LNCaP,0.71 µM
same,CC50,LNCaP,5.21 µM
same,IC (TGI),LNCaP,2.01 µM
same,GI50,K-562,0.731 µM
same,CC50,K-562,9.9 µM
same,IC (TGI),K-562,3.3 µM
same,GI50,SK-BR-3,0.46 µM
same,CC50,SK-BR-3,9.9 µM
same,IC (TGI),SK-BR-3,0.95 µM
same,GI50,LoVo-Dox,9.9 µM
same,CC50,LoVo-Dox,9.9 µM
same,IC (TGI),LoVo-Dox,9.9 µM
same,GI50,IGROV-ET,4.26 µM
same,CC50,IGROV-ET,9.9 µM
same,IC (TGI),IGROV-ET,8.25 µM
same,GI50,DU-145,3.41 µM
same,CC50,DU-145,9.9 µM
same,IC (TGI),DU-145,8.36 µM
same,GI50,SKOV-3,4.58 µM
same,CC50,SKOV-3,9.9 µM
same,IC (TGI),SKOV-3,9.9 µM
same,GI50,IGROV,2.41 µM
same,CC50,IGROV,9.9 µM
same,IC (TGI),IGROV,6.28 µM
same,GI50,H-MEC-1,0.682 µM
same,IC (TGI),H-MEC-1,1.86 µM
same,CC50,[1],5.96 µM
same,GI50,HT-29,2.34 µM
same,CC50,HT-29,9.9 µM
same,IC (TGI),HT-29,9.9 µM
